In brackets after ≈: the same amount, converted by molar mass. Where two headings read alike, the source gives them in different places.
Key:
HEK-293 cells [1] = experiment: mitochondrial activity (MTT assay)
Method: (§1) This innovative study evaluated the effects of cannabidiol (Cannabis sativa L.) on doxycycline-induced toxicity using three cell cultures: neural—SH-SY5Y, liver—HepG2, and kidney—HEK-293. […] A series of cytotoxicity assays included assessments of mitochondrial activity, lysosomal activity, cell membrane integrity, DNA synthesis, and cell proliferation. Based on the obtained results, IC50 values for doxycycline, both in monotherapy and in combination with CBD, were calculated, along with evaluations of ROS, death of cells, and morphology. The interaction between the drug and CBD was further analyzed by the combination index (CI).
(§2) The metabolic activity of viable cells was assessed by measuring dehydrogenase activity. After exposing the cell cultures to the test compounds, 10 µL of MTT solution (5 mg/mL in PBS) was added to each well of a 96-well plate. After 3 h of incubation, the MTT solution was removed, and the intracellular formazan was dissolved in 100 µL of DMSO. The plate was shaken for 15 min at room temperature and transferred to a Synergy 2 Multi-Mode Microplate Reader (BioTek® Instruments Inc., Winooski, VT, USA) to measure absorbance at 570 nm, using a blank as reference. Cytotoxicity was expressed as a percentage relative to the negative control.
(§3) To determine the types of interaction that occur when cells are exposed to combinations of DOX and CBD, the method established by Chou and Talalay was used in this study. The dose–effect relationships of the individual and combined test compounds were modeled biometrically using the Median-Effect Equation based on the Mass Action Law.fa/fu = (D/Dm)^m
(§4) In this isobolographic analysis, the combination index (CI) is a quantitative parameter used to evaluate the type and strength of interactions between multiple compounds. For all combinations, CI values were calculated across a range of affected fractions (Fa) from 0.05 to 0.95 (corresponding to 5–95% toxicity). CI values of 0.9–1.1, <0.9, and >1.1 indicate additive, synergistic, and antagonistic effects, respectively.
(§5) The study was conducted in three independent experiments (n = 3). […] Cytotoxicity data were analyzed using one-way analysis of variance (ANOVA), followed by Dunnett’s post hoc test to assess significance relative to the negative control. The half-maximal inhibitory concentration (IC50), representing the drug or drug–CBD mixture concentration required to inhibit cell viability by 50%, was calculated using GraphPad Prism 5.0. Statistical comparisons between IC50 values were performed using ANOVA followed by Tukey’s post hoc test. Differences were considered statistically significant at p ≤ 0.05.

HepG2 cells [2] = experiment: mitochondrial activity (MTT assay)
Method: as §1, §2, §3, §4, §5

SH-SY5Y cells [3] = experiment: mitochondrial activity (MTT assay); settings: 72 h
Method: as §1, §2, §3, §4, §5

HEK-293 cells [4] = experiment: DNA synthesis (BrdU assay); settings: for doxycycline concentration that inhibited DNA synthesis: HEK-293, BrdU, 72 h
Method: as §1
(§6) Cell proliferation was evaluated using the BrdU assay (Cell Proliferation ELISA, BrdU [colorimetric], Roche, Switzerland) according to the manufacturer’s instructions. Briefly, BrdU was incorporated into newly synthesized DNA in place of thymidine during cell division. Incorporated BrdU was detected using an anti-BrdU antibody conjugated with peroxidase. The enzymatic reaction product was quantified by measuring absorbance. Absorbance was measured at 370 nm and 492 nm using the Synergy 2 Multi-Mode Microplate Reader (BioTek® Instruments Inc., Winooski, VT, USA), with a blank as reference.
as §3, §4, §5

HepG2 cells [5] = experiment: DNA synthesis (BrdU assay)
Method: as §1, §6, §3, §4, §5

SH-SY5Y cells [6] = experiment: DNA synthesis (BrdU assay); settings: 72 h
Method: as §1, §6, §3, §4, §5

HEK-293 cells [7] = experiment: oxidative stress, ROS production (DCFH assay); format: cell-based, human
Method: (§7) Intracellular ROS levels were evaluated using the redox-sensitive fluorescent dye DCFH-DA [87]. Briefly, the cells were incubated with 5 μM DCFH-DA for 1 h at 37 °C in the dark. Thereafter, the tested compounds were added at the concentrations used in the study. Cells treated with 500 μM hydrogen peroxide (H2O2) served as a positive control. After 72 h of incubation, the fluorescence of 2′,7′-dichlorofluorescein (DCF) was measured. Fluorescence was recorded at 485/530 nm using a fluorescence microplate reader (BioTek® Instruments Inc., Winooski, VT, USA).

HepG2 cells [8] = experiment: oxidative stress, ROS production (DCFH assay); format: cell-based, human; settings: HepG2, DCFH-DA, 72 h
Method: as §7

SH-SY5Y cells [9] = experiment: oxidative stress, ROS production (DCFH assay); format: cell-based, human; settings: DCFH-DA, 72 h
Method: as §7

HepG2 cells [10] = experiment: series of five cytotoxicity assays (MTT, NRU, TPC, LDH, BrdU), summary; format: cell-based; settings: Homo sapiens, HepG2, 72 h, across MTT, read-out: IC50 values, range depending on the cellular parameter evaluated
HEK-293 cells [11] = experiment: as above; format: cell-based; settings: Homo sapiens, HEK293, 72 h, read-out: IC50 values, range depending on the cellular parameter assessed
[12] = cited from earlier work
[13] = test system: SH-SY5Y human neuroblastoma cells; set-up: method as in PMID 33429042; settings: 24 h, 4 ng/mL to 4.4 µg/mL; cited from earlier work
SH-SY5Y cells [14] = test system: SH-SY5Y cells; set-up: method as in PMID 16341128; settings: 24 h, cited from earlier work
[15] = test system: human pluripotent stem cell-derived hepatocytes; settings: cited from earlier work
normal HK-2 cells = test system: normal HK-2 cells; set-up: method as in PMID 34644207; settings: HK-2, 20 µg/mL, without triggering apoptosis; cited from earlier work
various human cell lines = settings: cited from earlier work

C[C@H]1c2cccc(O)c2C(=O)C2=C(O)[C@]3(O)C(=O)C(C(N)=O)=C(O)[C@@H](N(C)C)[C@@H]3[C@@H](O)[C@@H]21 [DOX, doxycycline hyclate]
doxycycline concentration that inhibited mitochondrial activity (HEK-293 cells [1]; HEK-293, MTT, 72 h): 6.25 µg/mL | IC50 (HEK-293 cells [1]; Homo sapiens, HEK293, 72 h): 17.4 ± 1 µg/mL | doxycycline concentration that impaired mitochondrial function (HepG2 cells [2]; HepG2, MTT, 72 h): 50 µg/mL | IC50 (HepG2 cells [2]; Homo sapiens, HepG2, 72 h): > 200 µg/mL | IC50 (SH-SY5Y cells [3]; Homo sapiens): 9.8 ± 0.9 µg/mL | doxycycline concentration from which mitochondrial activity was inhibited (SH-SY5Y cells [3]; MTT, p ≤ 0.05 vs negative control): 6.25 µg/mL | doxycycline concentration that inhibited DNA synthesis (HEK-293 cells [4]): 3.12 µg/mL | doxycycline concentration that inhibited DNA synthesis (HEK-293 cells [4]; listed as doxycycline): 3.125 µg/mL | IC50 (HEK-293 cells [4]; Homo sapiens, HEK293, 72 h): 8.9 ± 0.1 µg/mL | doxycycline concentration that inhibited DNA synthesis (HepG2 cells [5]; HepG2, BrdU, 72 h): 12.5 µg/mL | IC50 (HepG2 cells [5]; Homo sapiens, HepG2, 72 h): 24 ± 0.4 µg/mL | doxycycline concentration that inhibited DNA synthesis (SH-SY5Y cells [6]; BrdU): 12.5 µg/mL | IC50 (SH-SY5Y cells [6]; Homo sapiens): 15.6 ± 0.7 µg/mL | doxycycline concentration from which free radical (ROS) production increased (HEK-293 cells [7]): lowest tested concentration | doxycycline concentration at which free radical (ROS) production increased significantly (HepG2 cells [8]): 12.5 µg/mL | doxycycline concentration from which free radical (ROS) production increased (SH-SY5Y cells [9]): 1.56 µg/mL | IC50 (HepG2 cells [10]): 13.4 to 200 µg/mL (≈ 30.2 to 450 µM) | IC50 (HEK-293 cells [11]): 8.9 to 30.4 µg/mL (≈ 20 to 68.4 µM) | DOX level in breast muscles ([12]; breast muscles): 32.4 ± 3.6 µg/kg | residues of DOX detected in eggs ([12]; eggs): up to 1400 μg/kg | DOX concentration accumulated in the kidneys ([12]; kidneys): 44.7 ± 4.3 µg/kg | DOX concentration measured in the liver ([12]; liver): 21.6 ± 3.2 µg/kg | residues of DOX detected in milk ([12]; milk): 5 to 490 µg/kg | DOX level in thigh muscles ([12]; thigh muscles): 22.7 ± 2.9 µg/kg | effect on production of reactive oxygen species (ROS) [13]: protective effect | effect on cell density (SH-SY5Y cells [14]; 1 µg/mL): minimal | effect on cell density (SH-SY5Y cells [14]; higher concentrations up to 4 µg/mL): decreased SH-SY5Y cell density | effect on mitochondrial membrane [15]: depolarized the mitochondrial membrane | effect on DNA synthesis (normal HK-2 cells): inhibited DNA synthesis | effect of extended incubation on human cell lines (various human cell lines; 96 h, 0.1 to 10 µg/mL, increased lactate production and decreased oxygen consumption): cytotoxic effects | concentration observed to inhibit proliferation and induce apoptotic cell death (various human cell lines; tested human cell cultures): 1 µg/mL

— PMC12610721, “The Action of Cannabidiol on Doxycycline Cytotoxicity in Human Cells—In Vitro Study” (Molecules, 2025)
